In US20210139484A1, “DIHYDROISOQUINOLINE-2(1H)-CARBOXAMIDE AND RELATED COMPOUNDS AND THEIR USE IN TREATING MEDICAL CONDITIONS” (GOSSAMER BIO SERVICES, INC., priority 2018, published 2021):

Target: T1, human HPK1 protein (Homo sapiens, UniProt Q92918)
T1 construct: recombinant human HPK1 protein (a.a. 1-346) was expressed in Sf9 insect cells; GST (N); purchased Signalchem M23-11G; host or cells: Sf9 insect cells (baculovirus)
T1 sequence (Q92918 1-346): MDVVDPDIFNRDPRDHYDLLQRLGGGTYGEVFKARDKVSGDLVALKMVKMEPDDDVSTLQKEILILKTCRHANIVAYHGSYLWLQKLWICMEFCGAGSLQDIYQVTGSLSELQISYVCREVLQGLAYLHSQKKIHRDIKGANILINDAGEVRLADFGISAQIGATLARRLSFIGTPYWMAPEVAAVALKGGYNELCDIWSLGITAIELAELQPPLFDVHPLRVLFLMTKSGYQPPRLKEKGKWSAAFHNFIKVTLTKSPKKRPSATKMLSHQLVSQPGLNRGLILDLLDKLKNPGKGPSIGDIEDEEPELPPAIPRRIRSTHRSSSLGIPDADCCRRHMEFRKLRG
Assay: Human HPK1 protein TR-FRET assay
Format: biochemical
Settings: 1 mM ATP
How it was run: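 Read-out was TR-FRET using Eu-labeled anti-phospho-CREB (Ser133) antibody, with the 665/615 nm signal ratio normalised to DMSO-only wells and fitted by a 4-parameter logistic model for IC50. Reactions held 10 nM Sf9-expressed GST-HPK1 (a.a. 1-346), 100 nM CREBtide and 1 mM ATP, run 60 minutes at room temperature, pH 7.5.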

Cc1cc2c(Oc3ccc4c(c3)[C@H](C)N(C(=O)Nc3cnc5c(N6CCN(C)CC6)cccc5c3)CC4)ccnc2[nH]1 [X-7]
IC50 (Table 19): < 500 nM

CC[C@H]1CN(C(=O)Nc2ccc(CN3CCN(C)CC3)c(C(F)(F)F)c2)Cc2cc(Oc3c(F)cnc4[nH]c(C(=O)N(C)C)cc34)cnc21 [XIV-143]
IC50 (Table 20): < 500 nM

C[C@@H]1Cc2ccc(Oc3c(F)cnc4[nH]c(C5(O)CC5)cc34)cc2CN1C(=O)Nc1ccc(CN2CCN(C)CC2)c(C(F)(F)F)c1 [XVI-9]
IC50 (Table 20): < 500 nM

CC[C@@H]1CN(C(=O)Nc2ccc(CN3CCN(C)CC3)c(C(F)(F)F)c2)Cc2cc(Oc3ccnc4[nH]c(C5(O)COC5)cc34)cnc21 [XIV-50]
IC50 (Table 20): < 500 nM

Cc1cc2c(Oc3ccc4c(c3)[C@H](C)N(C(=O)Nc3cnc(OC5CCCN(C)C5)c(C(F)(F)F)c3)CC4)ccnc2[nH]1 (mixture of isomers) [VI-6]
IC50 (Table 19): 500 to 5000 nM

C[C@H]1c2cc(Oc3ccnc4[nH]ccc34)ccc2CCN1C(=O)Nc1ccc(OC2CCN(CCO)CC2)c(C(F)(F)F)c1 [V-17]
IC50 (Table 19): < 500 nM

CC[C@H]1CN(C(=O)Nc2ccc(CN3CCN(CC)CC3)c(C(F)(F)F)c2)Cc2cc(Oc3ccnc4[nH]c(C(=O)N(C)C)cc34)cnc21 [XIV-131]
IC50 (Table 20): < 500 nM

C[C@H]1c2cc(Oc3ccnc4[nH]ccc34)ccc2CCN1C(=O)Nc1ccc(CN2CCN(C)CC2)c(C(F)(F)F)c1 [V-2]
IC50 (Table 19): < 500 nM

CC[C@@H]1CN(C(=O)Nc2cnc(O[C@H]3CCN[C@@H](C)C3)c(C(F)(F)F)c2)Cc2cc(Oc3ccnc4[nH]c(C)cc34)cnc21 [XIV-71]
IC50 (Table 20): 500 to 5000 nM

CC[C@@H]1CN(C(=O)Nc2cnc(O[C@H]3CCN(C)C3)c(C(F)(F)F)c2)Cc2cc(Oc3ccnc4[nH]c(C)cc34)cnc21 [XIV-67]
IC50 (Table 20): > 10000 nM

CC[C@@H]1CN(C(=O)Nc2ccc(CN3CCN(C)CC3)c(C(F)(F)F)c2)Cc2cc(Oc3ccnn4cc(C(=O)N(C)C)nc34)cnc21 [XIV-115]
IC50 (Table 20): 5000 to 10000 nM

CCN1CCN(Cc2ccc(NC(=O)N3Cc4cc(Nc5ccnc(NC)c5)cnc4C(C)C3)cc2C(F)(F)F)CC1 (single isomer, unassigned) [IX-2]
IC50 (Table 19): 500 to 5000 nM

CCN1CCN(Cc2ccc(NC(=O)N3CCc4ccc(Oc5ncnn6cc(F)cc56)cc4C3)cc2C(F)(F)F)CC1 [II-8]
IC50 (Table 19): < 500 nM

CCN1CCN(Cc2ccc(NC(=O)C3CCc4ccc(Oc5ncnn6cccc56)cc4C3)cc2C(F)(F)F)CC1 (stereo not shown) [compound 13, N-(4-((4-ethylpiperazin-1-yl)methyl)-3-(trifluoromethyl)phenyl)-7-(pyrrolo[2,1-f][1,2,4]triazin-4-yloxy)-1,2,3,4-tetrahydronaphthalene-2-carboxamide]
IC50 (Table 19): < 500 nM

CN1CCN(Cc2ccc(NC(=O)N3Cc4cc(Oc5ccnc6[nH]c(C(=O)N(C)C)cc56)ccc4C(C(F)(F)F)C3)cc2C(F)(F)F)CC1 (stereo not shown) [XVIII-13]
IC50 (Table 20): < 500 nM

CC[C@H]1CN(C(=O)Nc2ccc(CN3CCN(C)CC3)c(C(F)(F)F)c2)Cc2cc(Oc3ccnc4[nH]c(C(C)C)cc34)cnc21 [XIV-153]
IC50 (Table 20): < 500 nM

CCN1CCN(Cc2ccc(NC(=O)N3CCc4ccc(Oc5ccnn6cc(Br)cc56)cc4C3)cc2C(F)(F)F)CC1 [II-24]
IC50 (Table 19): < 500 nM

CCN1CCN(Cc2ccc(NC(=O)N3CCc4ccc(Oc5ccnc6[nH]c(=O)ccc56)cc4C3)cc2C(F)(F)F)CC1 [II-12]
IC50 (Table 19): < 500 nM

CC[C@H]1CN(C(=O)Nc2ccc(CN3CCN(C)CC3)c(C(F)(F)F)c2)Cc2cc(Oc3ncnn4cc(C(=O)N(C)C)cc34)cnc21 [XIV-144]
IC50 (Table 20): < 500 nM

Cn1cc(-c2cc3c(Oc4ccc5c(c4)CN(C(=O)Nc4ccc(CN6CCN(CCO)CC6)c(C(F)(F)F)c4)CC5)c(F)cnc3[nH]2)cn1 [XII-14]
IC50 (Table 20): < 500 nM

Cc1cc2c(Oc3cnc4c(c3)CN(C(=O)Nc3cnc(OC5CCN(C)CC5)c(C(F)(F)F)c3)CC4C)ccnc2[nH]1 (single isomer, unassigned) [VII-8]
IC50 (Table 19): < 500 nM

CCN1CCN(Cc2ccc(NC(=O)N3CCc4ccc(Oc5ccnc6[nH]ccc56)cc4[C@@H]3C)cc2Cl)CC1 [V-3]
IC50 (Table 19): < 500 nM

CC[C@H]1CN(C(=O)Nc2ccc(CN3CCN(C)CC3)c(C(F)(F)F)c2)Cc2cc(Oc3ccnc4[nH]c(C5CC5)cc34)cnc21 [XIV-72]
IC50 (Table 20): < 500 nM

CC[C@H]1CN(C(=O)Nc2ccc(CN3CCNCC3)c(C(F)(F)F)c2)Cc2cc(Oc3ncnc4[nH]c(C(=O)NC)cc34)cnc21 [XIV-127]
IC50 (Table 20): < 500 nM

Cc1cc2c(Oc3ccc4c(c3)[C@H](C)N(C(=O)Nc3cnc(OC5CN(C)C5)c(C(F)(F)F)c3)CC4)ccnc2[nH]1 [VI-12]
IC50 (Table 19): 500 to 5000 nM

CN1CCN(Cc2ccc(NC(=O)N3CCc4ccc(Oc5c(F)cnc6[nH]c(-c7cnn(C)c7)cc56)cc4C3)cc2C(F)(F)F)CC1 [compound 19, 7-[[5-Fluoro-2-(1-methylpyrazol-4-yl)-1H-pyrrolo[2,3-b]pyridin-4-yl]oxy]-N-[4-[(4-methylpiperazin-1-yl)methyl]-3-(trifluoromethyl)phenyl]-3,4-dihydro-1H-isoquinoline-2-carboxamide]
IC50 (Table 20): < 500 nM

Cc1cc2c(Oc3ccc4c(c3)[C@H](C)N(C(=O)Nc3cnc(OC5CCN(C)CC5)c(C(F)(F)F)c3)CC4)ccnc2[nH]1 [VI-2]
IC50 (Table 19): < 500 nM

CC[C@H]1CN(C(=O)Nc2ccc(CN3CCN(C)CC3)c(C(F)F)c2)Cc2cc(Oc3ccnc4[nH]c(CO)cc34)cnc21 [XIV-47]
IC50 (Table 20): < 500 nM

CCC1CN(C(=O)Nc2ccc(CN3CCN(CC)CC3)c(C(F)(F)F)c2)Cc2cc(Oc3ncnc4[nH]c(C)cc34)cnc21 (stereo not shown) [XIV-4]
IC50 (Table 20): < 500 nM

CCN1CCN(Cc2ccc(NC(=O)N3CCc4c(C)cc(Oc5ccnc6[nH]ccc56)cc4C3C)cc2C(F)(F)F)CC1 (single isomer, unassigned) [IV-4]
IC50 (Table 19): < 500 nM

Cc1cc2c(Oc3cnc4c(c3)CN(C(=O)Nc3cnc(OC5CCN(C)CC5)c(C(F)(F)F)c3)CC4C)ncnc2[nH]1 (stereo not shown) [VII-13]
IC50 (Table 19): < 500 nM

CCN1CCN(Cc2ccc(NC(=O)N3CCc4ccc(Oc5ccnc6[nH]c(-c7cnn(C)c7)cc56)cc4[C@@H]3C)cc2C(F)(F)F)CC1 [V-27]
IC50 (Table 19): < 500 nM

CC[C@@H]1CN(C(=O)Nc2ccc(CN3CCNCC3)c(C(F)(F)F)c2)Cc2cc(Oc3ccnc4[nH]c(C5CC5)cc34)cnc21 [XIV-64]
IC50 (Table 20): < 500 nM

CCN1CCN(Cc2ccc(NC(=O)N3CCc4ccc(Oc5ccnc6[nH]ncc56)cc4[C@@H]3C)cc2C(F)(F)F)CC1 [V-5]
IC50 (Table 19): < 500 nM

CCN1CCN(Cc2ccc(NC(=O)N3CCc4ccc(Oc5ccnc6[nH]cnc56)cc4C3)cc2C(F)(F)F)CC1 [II-20]
IC50 (Table 19): < 500 nM

CCN1CCN(Cc2ccc(NC(=O)N3CCc4ccc(Oc5ccnn6cc(-c7cnn(C)c7)cc56)cc4C3)cc2C(F)(F)F)CC1 [II-26]
IC50 (Table 19): < 500 nM

C[C@H]1c2cc(Oc3ccnc4[nH]ccc34)ccc2CCN1C(=O)Nc1cnc(OC2CCN(C)CC2)c(C(F)(F)F)c1 [compound 7, (S)-7-((1H-pyrrolo[2,3-b]pyridin-4-yl)oxy)-1-methyl-N-(6-((1-methylpiperidin-4-yl)oxy)-5-(trifluoromethyl)pyridin-3-yl)-3,4-dihydroisoquinoline-2(1H)-carboxamide]
IC50 (Table 19): < 500 nM

Cc1cc2c(Oc3ccc4c(c3)[C@H](C)N(C(=O)Nc3cnc(OC5CCN(C)CC5O)c(C(F)(F)F)c3)CC4)ccnc2[nH]1 (stereo in doubt) [VI-8]
IC50 (Table 19): < 500 nM

CCN1CCN(Cc2ccc(NC(=O)N3CC(=O)c4ccc(Oc5ccnc6[nH]c(C)cc56)cc4C3)cc2C(F)(F)F)CC1 [compound 17, N-(4-((4-ethylpiperazin-1-yl)methyl)-3-(trifluoromethyl)phenyl)-7-((2-methyl-1H-pyrrolo[2,3-b]pyridin-4-yl)oxy)-4-oxo-3,4-dihydroisoquinoline-2(1H)-carboxamide]
IC50 (Table 19): < 500 nM

CCN1CCN(Cc2ccc(NC(=O)N3Cc4cc(Oc5ccnc(NCCO)c5)cnc4C(C)C3)cc2C(F)(F)F)CC1 (single isomer, unassigned) [XIV-16]
IC50 (Table 20): 500 to 5000 nM

C[C@H]1c2cc(Oc3ccnc4[nH]c(CO)cc34)ccc2CCN1C(=O)Nc1ccc(CN2CCN(CCO)CC2)c(C(F)F)c1 [XIII-12]
IC50 (Table 20): < 500 nM

CC[C@@H]1Cc2ncc(Oc3ccnc4[nH]ccc34)cc2CN1C(=O)Nc1ccc(CN2CCN(CC)CC2)c(C(F)(F)F)c1 [XVIII-17]
IC50 (Table 20): < 500 nM

CC[C@@H]1CN(C(=O)Nc2ccc(CN3CCN(C)CC3)c(C(F)(F)F)c2)Cc2cc(Oc3ccnc4[nH]c(CO)cc34)cnc21 [XIV-56]
IC50 (Table 20): < 500 nM

CC[C@H]1CN(C(=O)Nc2ccc(CN3CCNCC3)c(C(F)(F)F)c2)Cc2cc(Oc3ccnc4[nH]c(-c5n[nH]c(=O)o5)cc34)cnc21 [XIV-130]
IC50 (Table 20): < 500 nM

CN(C)C(=O)c1cc2c(Oc3ccc4c(c3)CN(C(=O)Nc3ccc(CN5CCNCC5)c(C(F)(F)F)c3)CC4)c(F)cnc2[nH]1 [XVIII-3]
IC50 (Table 20): < 500 nM

CCC1CN(C(=O)Nc2ccc(CN3CCN(CC)CC3)c(C(F)(F)F)c2)Cc2cc(Oc3ccnc4[nH]c(C5CCOCC5)cc34)cnc21 (stereo not shown) [XIV-70]
IC50 (Table 20): < 500 nM

CCN1CCN(Cc2ccc(NC(=O)N3CCc4ccc(Oc5ncnc6[nH]cnc56)cc4C3)cc2C(F)(F)F)CC1 [II-6]
IC50 (Table 19): < 500 nM

CCN1CCN(Cc2ccc(NC(=O)N3Cc4cc(Oc5ccnc6[nH]c(C)cc56)cnc4C(C)C3)cc2C(F)(F)F)CC1 (single isomer, unassigned) [VII-4]
IC50 (Table 19): < 500 nM

CCN1CCN(Cc2ccc(NC(=O)N3CCc4cc(Br)c(Oc5ccnc6[nH]ccc56)cc4C3C)cc2C(F)(F)F)CC1 (stereo not shown) [IV-13]
IC50 (Table 19): < 500 nM
